Each structure is given as a SMILES string. Counter-ions that a name gives are not always drawn.

By IC50 is commonly meant the concentration at which inhibition is half-maximal. Higher therefore signals weaker potency in that assay.

For assay [1], the target named is T1, IDH1^R132H homodimer enzyme (Homo sapiens, UniProt O75874, R132H).
T1 construct: purchased not specified
The assay is described as follows: NADPH depletion assay, IDH1 R132H. The assay is classed as biochemical. As to the method:
(§1) IDH mutated enzyme activity converting alpha-ketoglutarate to 2-hydroxyglutaric acid is measured using a NADPH depletion assay. In the assay the remaining cofactor is measured at the end of the reaction with the addition of a catalytic excess of diaphorase and resazurin, to generate a fluorescent signal in proportion to the amount of NADPH remaining. IDH1 WT enzyme as well as mutated isoforms IDH1^R132H, IDH1^R132C, and IDH^2R172K enzymes are commercially available proteins (see e.g. Sino Biological, Abcam, Active Motif or Creative BioMart).
(§2) IDH1^R132H homodimer enzyme are diluted to 8 nM, in 10 μL of Assay Buffer (150 mM NaCl, 50 mM Tris-HCl pH 7.6, 10 mM MgCl2, 0.001% Triton X-100, 4 mM β-mercaptoethanol); 0.2 uL of test compound, previously serially diluted 1 to 3, >10 experimental points from 1 mM in DMSO, is added and the mixture is incubated for 15 minutes at room temperature. The reaction is started with the addition of 10 μL of Substrate Mix (12 uM NADPH, 3.4 mM alpha-ketoglutarate in Assay Buffer) and the mixture is incubated for 60 minutes at room temperature. The reaction is terminated with the addition of 5 μl of Detection Buffer (100 μg/mL diaphorase, 30 μM resazurin, in IX Assay Buffer), and is incubated for 15 minute before reading on a ViewLux as platereader at Ex544/Em590.

The target in a further assay is T2, IDH1^R132C (Homo sapiens, UniProt O75874, R132C).
T2 construct: purchased not specified
T2 sequence (O75874 whole entry R132C): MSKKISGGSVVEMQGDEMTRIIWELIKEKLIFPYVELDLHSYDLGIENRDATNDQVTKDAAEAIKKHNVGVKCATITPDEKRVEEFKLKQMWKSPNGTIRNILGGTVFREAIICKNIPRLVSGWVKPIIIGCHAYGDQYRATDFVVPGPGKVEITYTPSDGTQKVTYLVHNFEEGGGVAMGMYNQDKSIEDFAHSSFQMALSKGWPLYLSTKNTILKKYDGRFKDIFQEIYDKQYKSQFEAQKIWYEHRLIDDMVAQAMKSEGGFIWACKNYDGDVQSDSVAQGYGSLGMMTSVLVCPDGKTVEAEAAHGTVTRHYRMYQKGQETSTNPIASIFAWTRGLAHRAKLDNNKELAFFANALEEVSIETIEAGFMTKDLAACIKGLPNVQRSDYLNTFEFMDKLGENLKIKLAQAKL
The assay is described as follows: NADPH depletion assay, IDH1 R132C. Type of assay: biochemical. The method, then:
as §1, §2
Compounds are assayed for their activity against IDH1^R132C following the same assay as above with the following modifications: IDH1^R132C and alpha-ketoglutarate final concentrations in the Assay Buffer is 2 nM and 0.14 mM, respectively.

T1 sequence (O75874 whole entry R132H): as the sequence (O75874 whole entry R132C) above, with C132H counted along it

Regarding `C[C@H](Nc1ncc2ccc(=O)n(CC(C)(C)C)c2n1)c1ccc(C(=O)NC2CCCC2)cc1` [cpd 80, N-cyclopentyl-4-[(1S)-1-{[8-(2,2-dimethylpropyl)-7-oxo-pyrido[2,3-d]pyrimidin-2-yl]amino}ethyl]benzamide], the concentration for half-maximal inhibition (IC50) in assay [1] came to 444 nM; at IDH1^R132C, 282 nM.

For `C[C@H](Nc1ncc2ccc(=O)n(CC(C)(C)C)c2n1)c1ccc(S(C)(=O)=O)cc1` [cpd 137, 8-(2,2-dimethylpropyl)-2-({(1S)-1-[4-(methylsulfonyl)phenyl]ethyl}amino)pyrido[2,3-d]pyrimidin-7(8H)-one], the IC50 in assay [1] was found to be 3470 nM; at IDH1^R132C it was 1300 nM.

In the case of `CC(C)[C@H](C)n1c(=O)ccc2cnc(N[C@@H](C)c3ccc(OC4CCNCC4)cc3)nc21` [cpd 155, 8-((S)-1,2-Dimethyl-propyl)-2-{(S)-1-[4-(piperidin-4-yloxy)-phenyl]-ethylamino}-8H-pyrido[2,3-d]pyrimidin-7-one], the IC50 in assay [1] came to 455 nM; at IDH1^R132C, 147 nM.

Consider `CCn1c(=O)ccc2cnc(N[C@@H](C)c3ccc(C(=O)N4CCN(C(=O)OC(C)(C)C)CC4)cc3)nc21` [cpd 189, tert-butyl 4-(4-{(1S)-1-[(8-ethyl-7-oxo-7,8-dihydropyrido[2,3-d]pyrimidin-2-yl)amino]ethyl}benzoyl)piperazine-1-carboxylate], for which the IC50 in assay [1] came out at 3770 nM; at IDH1^R132C, 811 nM.

Regarding `CC(C)(C)Cn1c(=O)ccc2cnc(NC(C)(C)c3ccccc3)nc21` [cpd 41, 8-(2,2-dimethylpropyl)-2-[(2-phenylpropan-2-yl)amino]pyrido[2,3-d]pyrimidin-7(8H)-one], the IC50 was found to be 2460 nM in assay [1] and 1410 nM against IDH1^R132C.

In the case of `C[C@H](Nc1ncc2ccc(=O)n(CC(C)(C)C)c2n1)c1ccc(CN2CCNCC2)cc1` [cpd 138, 8-(2,2-Dimethyl-propyl)-2-[(S)-1-(4-piperazin-1-ylmethyl-phenyl)-ethylamino]-8H-pyrido[2,3-d]pyrimidin-7-one hydrochloride], the IC50 is 2260 nM in assay [1] and 777 nM against IDH1^R132C.

In the case of `COc1ccc(Cn2c(=O)ccc3cnc(N[C@@H](C)c4ccc(Cl)cc4)nc32)cc1` [cpd 21, 2-{[(1S)-1-(4-chlorophenyl)ethyl]amino}-8-(4-methoxybenzyl)pyrido[2,3-d]pyrimidin-7(8H)-one], the IC50 in assay [1] was 2490 nM; against IDH1^R132C it was 586 nM.

In the case of `C[C@H](Nc1ncc2ccc(=O)n(Cc3c(F)cccc3F)c2n1)c1ccc(C(=O)NC2CCN(C)CC2)cc1` [cpd 76, 4-[(1S)-1-{[8-(2,6-difluorobenzyl)-7-oxo-pyrido[2,3-d]pyrimidin-2-yl]amino}ethyl]-N-(1-methylpiperidin-4-yl)benzamide], the IC50 came out at 2380 nM in assay [1] and 3630 nM at IDH1^R132C.

As to `COC(=O)c1ccc([C@H](C)Nc2ncc3ccc(=O)n(CC(C)C)c3n2)cc1` [cpd 5, methyl 4-[(1S)-1-{[8-(2-methylpropyl)-7-oxo-pyrido[2,3-d]pyrimidin-2-yl]amino}ethyl]benzoate], the IC50 in assay [1] was found to be 1130 nM; on IDH1^R132C, 450 nM.

`CCn1c(=O)ccc2cnc(N[C@@H](C)c3ccc(CN4CCN(C(=O)OC(C)(C)C)CC4)cc3)nc21` [cpd 185, tert-butyl 4-(4-{(1S)-1-[(8-ethyl-7-oxo-7,8-dihydropyrido[2,3-d]pyrimidin-2-yl)amino]ethyl}benzyl)piperazine-1-carboxylate]: the IC50 in assay [1] was 2370 nM; against IDH1^R132C, 1270 nM.

In the case of `Cc1cc(=O)n(CC(C)(C)C)c2nc(N[C@@H](C)c3ccc(CN4CCCC(F)(F)C4)cc3)ncc12` [cpd 60, 2-{(S)-1-[4-(3,3-Difluoro-piperidin-1-ylmethyl)-phenyl]-ethylamino}-8-(2,2-dimethyl-propyl)-5-methyl-8H-pyrido [2,3-d]pyrimidin-7-one], the IC50 in assay [1] is 341 nM; at IDH1^R132C it was 139 nM.

Take `C[C@H](Nc1ncc2ccc(=O)n(CC(C)(C)C(=O)O)c2n1)c1ccc2ccccc2c1` [cpd 121, 2,2-dimethyl-3-[2-{[(1S)-1-(naphthalen-2-yl)ethyl]amino}-7-oxopyrido[2,3-d]pyrimidin-8(7H)-yl]propanoic acid]: the 50% inhibitory concentration (IC50) in assay [1] amounted to 3900 nM; against IDH1^R132C, 1630 nM.

For `CC(Nc1ncc2ccc(=O)n(CCF)c2n1)c1ccc(CN2CCC(F)(F)CC2)cc1` (centres unmarked) [cpd 100, 2-[(1-{4-[(4,4-difluoropiperidin-1-yl)methyl]phenyl}ethyl)amino]-8-(2-fluoroethyl)pyrido[2,3-d]pyrimidin-7(8H)-one], the half-inhibitory concentration (IC50) in assay [1] is 3060 nM; against IDH1^R132C, 1590 nM.

As for `C[C@H](Nc1ncc2ccc(=O)n(CC(C)(C)CO)c2n1)c1ccc(CN2CCC(F)(F)CC2)cc1` [cpd 55, 2-{(S)-1-[4-(4,4-Difluoro-piperidin-1-ylmethyl)-phenyl]-ethylamino}-8-(3-hydroxy-2,2-dimethyl-propyl)-8H-pyrido[2,3-d]pyrimidin-7-one], the results for the IC50 (in assay [1]; against IDH1^R132C) were 137 nM and 65 nM, respectively.

As to `C[C@H](Nc1ncc2ccc(=O)n(CC(C)(C)C)c2n1)c1ccc(CN2CCCC2)cc1` [cpd 111, 8-(2,2-dimethylpropyl)-2-({(1S)-1-[4-(pyrrolidin-1-ylmethyl)phenyl]ethyl}amino)pyrido[2,3-d]pyrimidin-7(8H)-one], the values for the IC50 (in assay [1]; against IDH1^R132C) were 4040 nM and 1420 nM, respectively.

In the case of `CC(C)[C@H](C)n1c(=O)ccc2cnc(N[C@@H](C)c3ccc(CN4CCN(C)C(=O)C4)cc3)nc21` [cpd 188, 8-[(2S)-3-methylbutan-2-yl]-2-{[(1S)-1-{4-[(4-methyl-3-oxopiperazin-1-yl)methyl]phenyl}ethyl]amino}-pyrido [2,3-d]pyrimidin-7(8H)-one], the IC50 worked out at 330 nM in assay [1] and 120 nM at IDH1^R132C.

As for `CCCC(C)(CO)Cn1c(=O)ccc2cnc(N[C@@H](C)c3ccc(CN4CCC(F)(F)CC4)cc3)nc21` (stereo partly drawn) [cpd 120, 2-{[(1S)-1-{4-[(4,4-difluoropiperidin-1-yl)methyl]phenyl}ethyl]amino}-8-[2-(hydroxymethyl)-2-methylpentyl]pyrido[2,3-d]pyrimidin-7(8H)-one], the figures for the IC50 (in assay [1]; at IDH1^R132C) were 221 nM and 108 nM, respectively.

With `C[C@H](Nc1ncc2ccc(=O)n(Cc3ccc(F)cc3F)c2n1)c1ccc(Cl)cc1` [cpd 25, 2-{[(1S)-1-(4-chlorophenyl)ethyl]amino}-8-(2,4-difluorobenzyl)pyrido[2,3-d]pyrimidin-7(8H)-one], the half-inhibitory concentration (IC50) in assay [1] was determined as 1940 nM; on IDH1^R132C, 524 nM.

As to `CC(C)[C@H](C)n1c(=O)ccc2cnc(N[C@@H](C)c3ccc(-c4ccnc(F)c4)cn3)nc21` [cpd 197, 2-{[(1S)-1-(2′-fluoro-3,4′-bipyridin-6-yl)ethyl]amino}-8-[(2S)-3-methylbutan-2-yl]pyrido[2,3-d]pyrimidin-7(8H)-one], the IC50 came to 2340 nM in assay [1] and 405 nM at IDH1^R132C.

Turning to `C[C@H](Nc1ncc2ccc(=O)n(CC(C)(C)C)c2n1)c1nc(-c2ccc(Cl)cc2)no1` [cpd 52, 2-({(1S)-1-[3-(4-chlorophenyl)-1,2,4-oxadiazol-5-yl]ethyl}amino)-8-(2,2-dimethylpropyl)pyrido[2,3-d]pyrimidin-7(8H)-one], the IC50 in assay [1] came out at 1760 nM; at IDH1^R132C, 786 nM.

With `C[C@H](Nc1ncc2ccc(=O)n(CC(C)(C)C)c2n1)c1ccc(O)cc1` [cpd 145, 8-(2,2-Dimethyl-propyl)-2-[(S)-1-(4-hydroxy-phenyl)-ethylamino]-8H-pyrido[2,3-d]pyrimidin-7-one], the IC50 in assay [1] was 3560 nM; against IDH1^R132C, 1320 nM.

As for `C[C@H](Nc1ncc2ccc(=O)n(CC(F)(F)F)c2n1)c1ccc(Cl)cc1` [cpd 18, 2-{[(1S)-1-(4-chlorophenyl)ethyl]amino}-8-(2,2,2-trifluoroethyl)pyrido[2,3-d]pyrimidin-7(8H)-one], the IC50 was 4070 nM in assay [1] and 1550 nM on IDH1^R132C.

Take `C[C@H](Nc1ncc2ccc(=O)n(CC(C)(C)C)c2n1)c1ccc(CN2CCN(C(=O)C3CC3)CC2)cc1` [cpd 158, 2-{[(1S)-1-(4-{[4-(cyclopropylcarbonyl)piperazin-1-yl]methyl}phenyl)ethyl]amino}-8-(2,2-dimethylpropyl) pyrido[2,3-d]pyrimidin-7(8H)-one]: the 50% inhibitory concentration (IC50) in assay [1] came to 126 nM; on IDH1^R132C it was 40 nM.

For `C[C@H](Nc1ncc2ccc(=O)n(CC(C)(C)C)c2n1)c1ccc(CN2CC(F)(F)C2)cc1` [cpd 147, 2-{[(1S)-1-{4-[(3,3-difluoroazetidin-1-yl)methyl]phenyl}ethyl]amino}-8-(2,2-dimethylpropyl)pyrido[2,3-d]pyrimidin-7(8H)-one], the results for the IC50 (in assay [1]; on IDH1^R132C) were 473 nM and 173 nM, respectively.

`C[C@H](Nc1ncc2ccc(=O)n(CC(C)(C)O)c2n1)c1ccc(CN2CCC(F)(F)CC2)cc1` [cpd 119, 2-{(S)-1-[4-(4,4-Difluoro-piperidin-1-ylmethyl)-phenyl]-ethylamino}-8-(2-hydroxy-2-methyl-propyl)-8H-pyrido [2,3-d]pyrimidin-7-one]: the IC50 in assay [1] was found to be 2230 nM; against IDH1^R132C it was 1160 nM.

The values are drawn from US12018023B2 (NERVIANO MEDICAL SCIENCES S.R.L., priority 2018, dated 2024).
